Test results taken from US6362212B1, “Oxime derivative and bactericide containing the same as active ingredient” (Shionogi & Company, Ltd., priority 1994, dated 2002).

Key:
Type in all cases: in vivo
[1] = test system: Sphaerotheca fuliginea; experiment: Controlling effect on Sphaerotheca fuliginea by foliage application (pot experiment); conditions: foliage spray on cucumber (cv. TSUKUBASHIROIBO) first leaves, infected area after 10 days in greenhouse at 20° C.
Experimental: The following Test Examples illustrate the effects of the fungicide of the present invention. (I. Controlling effects on various plant diseases by foliage application (pot experiment)) A test compound was dissolved in a small amount of N,N-dimethylformamide, and the solution was diluted to a given concentration with distilled water containing a spreader. Thus, a liquid sample to be tested was prepared. The liquid sample was sprayed to test plants, and 24 hours thereafter, pathogens were inoculated by the method described below. […] Seeds of cucumber ([…]) were sown in plastic cups (each 9 cm in diameter), followed by cultivation for 2 to 3 weeks. The liquid test sample in the form of a solution or suspension was sprayed on the surface of their first leaves. The pathogen was inoculated to the leaves by spraying a conidia suspension of Sphaerotheca fuliginea which had been cultured on the cucumber leaves. After the inoculation, the plants were kept in a greenhouse at 20° C. for 10 days. Then, the infected area on the leaf was observed, and the percent control was calculated.

[2] = test system: Pseudoperonospora cubensis; experiment: Controlling effect on Pseudoperonospora cubensis by foliage application (pot experiment); conditions: foliage spray on cucumber (var. TSUKUBASHIROIBO) first leaves, lesion area after 10 days in moist chamber at 20° C.
Experimental: The following Test Examples illustrate the effects of the fungicide of the present invention. (I. Controlling effects on various plant diseases by foliage application (pot experiment)) A test compound was dissolved in a small amount of N,N-dimethylformamide, and the solution was diluted to a given concentration with distilled water containing a spreader. Thus, a liquid sample to be tested was prepared. The liquid sample was sprayed to test plants, and 24 hours thereafter, pathogens were inoculated by the method described below. […] The seeds of cucumber (var.: […]) were sown in plastic cups (each 9 cm in diameter), followed by cultivation for 2 to 3 weeks. The test compound in the form of a solution or suspension was sprayed to the surface of their first leaves, and a zoosporangia suspension of Pseudoperonospora cubensis cultured on cucumber leaves was dropped on the above leaf surfaces to inoculate the test plants with the pathogen. After the inoculation, the plants were kept in a moist chamber at 20° C. for 10 days. Then, the area of the lesions around the inoculum were observed and the percent control was calculated.

[3] = test system: Erysiphe graminis f. sp. tritici; experiment: Controlling effect on Erysiphe graminis f. sp. tritici by foliage application (pot experiment); conditions: foliage spray on wheat (cv. NORIN No. 61) seedlings, infected area after 10 days in greenhouse at 20° C.
Experimental: The following Test Examples illustrate the effects of the fungicide of the present invention. (I. Controlling effects on various plant diseases by foliage application (pot experiment)) A test compound was dissolved in a small amount of N,N-dimethylformamide, and the solution was diluted to a given concentration with distilled water containing a spreader. Thus, a liquid sample to be tested was prepared. The liquid sample was sprayed to test plants, and 24 hours thereafter, pathogens were inoculated by the method described below. […] The seeds of wheat (cv.: NORIN No. 61) were sown in plastic cups (each 9 cm in diameter), followed by cultivation for 2 to 3 weeks. The test compound in the form of a solution or suspension was sprayed to the seedlings, and conidia of Erysiphe graminis f. sp. tritici cultured on wheat leaves were dropped on the test plants to inoculate the plants with the pathogen. After the inoculation, the plants were kept in a greenhouse at 20° C. for 10 days. The infected area on the leaf was observed, and the percent control was calculated.

[4] = test system: Pyricularia oryzae; conditions: foliage spray on rice seedlings (cv. […]), number of lesions six days after the inoculation

Row | SMILES | Controlling effect on Sphaerotheca fuliginea by foliage application at 500 ppm (percent control) [1] [percent control] | Controlling effect on Pseudoperonospora cubensis by foliage application at 500 ppm (percent control) [2] [percent control] | Controlling effect on ErYsiphe graminis f. sp. tritici by foliage application at 500 ppm (percent control) [3] [percent control] | Controlling effect on PYricularia orYzae by foliage application at 500 ppm (percent control) [4] [percent control]
1 | CON=C(c1nnn(C)n1)c1ccccc1COc1ccc(C)cc1 [compound 2014] | 100 | 100 |  | 
2 | CON=C(c1cc(C)no1)c1ccccc1COc1ncc(C(F)(F)F)cc1Cl (single isomer, unassigned) [690B, 2-(3-chloro-5-trifluoromethyl-2-pyridyloxymethyl)phenyl 3-methylisoxazol-5-yl ketone O-methyloxime] |  | 100 |  | 
3 | CON=C(c1nnn(C)n1)c1ccccc1COc1ccc(-c2ccccc2)cc1 [compound 2044] | 97 | 100 |  | 
4 | CON=C(c1cc(C)no1)c1ccccc1COc1ccc(Cl)cc1 (single isomer, unassigned) [607B] | 97 | 97 | 70 | 
5 | CON=C(c1cc(C)no1)c1ccccc1COc1cccc(C)c1 (single isomer, unassigned) [613B] | 100 | 100 | 70 | 
6 | CON=C(c1cc(C)no1)c1ccccc1CON=C(C)c1ccc(Cl)cc1 [Compound No. 2507] | 100 | 100 |  | 
7 | CON=C(c1ncon1)c1ccccc1COc1ccc(-c2ccccc2)cc1 [compound 844] | 97 | 100 |  | 
8 | CON=C(c1ccccc1COc1cccc(Cl)c1)n1cnc(C)c1 [compound 226] | 70 |  | 70 | 70
9 | CON=C(c1ccccc1COc1ccc(C)cc1)c1nccn1C (single isomer, unassigned) [114A] | 100 |  | 90 | 90
10 | CON=C(c1cc(C)no1)c1ccccc1COc1cccc(Cl)c1 (single isomer, unassigned) [606A] | 100 | 95 | 70 | 
11 | CON=C(c1ccccc1COc1cccc(Cl)c1)n1cncn1 [compound 266] | 97 |  | 97 | 90
12 | CON=C(c1cc(C)on1)c1ccccc1COc1ccccc1C (mixture of isomers) [compound 412] | 100 | 100 | 70 | 
13 | CON=C(c1ccccc1COc1cccc(Cl)c1)c1nccn1C (single isomer, unassigned) [106B] | 97 | 100 |  | 
14 | CON=C(c1ccccc1COc1ccccc1)n1cnc(C)c1 [compound 221] | 97 |  | 70 | 70
15 | CCON=C(c1ccon1)c1ccccc1COc1cc(C)ccc1C (mixture of isomers) [compound 1674] | 70 |  | 70 | 70
16 | CON=C(c1noc(C)n1)c1ccccc1COc1ccccc1C [Compound No. 912] | 100 |  | 90 | 70
17 | COC(=O)C(C)N(C(=O)Cc1ccccc1)c1c(C)cccc1C (stereo not shown) [Benalaxyl, reference compound] |  | 97 |  | 
18 | CON=C(c1ccccc1COc1ccccc1)n1cncn1 [compound 261] | 97 |  | 97 | 70
19 | CON=C(c1noc(C)n1)c1ccccc1COc1ccccc1Cl [compound 905] | 90 | 99 |  | 
20 | CON=C(c1cc(C)no1)c1ccccc1COc1ccccc1C (single isomer, unassigned) [612B] | 100 | 100 | 100 | 
21 | CON=C(c1ccno1)c1ccccc1COc1ccc(Cl)cc1C (single isomer, unassigned) [541A] | 100 | 100 | 90 | 
22 | CON=C(c1cc(C)no1)c1ccccc1COc1cccc(Cl)c1 (single isomer, unassigned) [606B] | 100 | 100 |  | 
23 | CON=C(c1ccon1)c1ccccc1COc1cccc(C(F)(F)F)c1 (mixture of isomers) [compound 322] | 100 |  | 70 | 70
